Patent publication US20240173307A1, “MODULATORS OF THE INTEGRATED STRESS PATHWAY” (Calico Life Sciences LLC, priority 2017, published 2024)

Test system: HEK293T cells carrying the ATF4 luciferase reporter
Test: ATF4-Luc assay (in vitro model of vanishing white matter disease)
Format: cell-based
Details: Homo sapiens, HEK-293T, 1 μg/mL tunicamycin, 7 hours
Method: In order to test exemplary compounds of the invention in a cellular context, a stable VWMD cell line was first constructed. The ATF4 reporter was prepared by fusing the human full-length ATF4 5′-UTR (NCBI Accession No. BCO22088.2) in front of the firefly luciferase (FLuc) coding sequence lacking the initiator methionine as described in Sidrauski et al (eLife 2013). The construct was used to produce recombinant retroviruses using standard methods and the resulting viral supernatant was used to transduce HEK293T cells, which were then subsequently selected with puromycin to generate a stable cell line.
HEK293T cells carrying the ATF4 luciferase reporter were plated on polylysine coated 384-well plates (Greiner Bio-one) at 30,000 cells per well. Cells were treated the next day with 1 μg/mL tunicamycin and 200 nM of a compound of Formula (I) for 7 hours. Luminescence was measured using One Glo (Promega) as specified by the manufacturer. Cells were maintained in DMEM with L-glutamine supplemented with 10% heat-inactivated FBS (Gibco) and Antibiotic-Antimycotic solution (Gibco).
Table 2 below summarizes the EC50 data obtained using the ATF4-Luc assay for exemplary compounds of the invention.

SMILES: O=C(COc1ccc(Cl)c(F)c1)NC12CCC(C(=O)Nc3ccc(OC(F)F)nc3)(C1)C2 [Compound 268, 4-[2-(4-chloro-3-fluorophenoxy)acetamido]-N-[6-(difluoromethoxy)pyridin-3-yl]bicyclo[2.1.1]hexane-1-carboxamide]
- EC50: 250 to 500 nM

SMILES: O=C(COc1ccc(Cl)c(F)c1)NC12CC(C(=O)Nc3cc(CO)ccn3)(C1)C2 [Compound 313, 3-[2-(4-chloro-3-fluorophenoxy)acetamido]-N-[4-(hydroxymethyl)pyridin-2-yl]bicyclo[1.1.1]pentane-1-carboxamide]
- EC50: 1000 to 2000 nM

SMILES: CC(NC(=O)C12CC(NC(=O)COc3ccc(Cl)c(F)c3)(C1)C2)c1cc2cc(Cl)ccc2o1 (stereo not shown) [Compound 330, N-[1-(5-chloro-1-benzofuran-2-yl)ethyl]-3-[2-(4-chloro-3-fluorophenoxy)acetamido]bicyclo[1.1.1]pentane-1-carboxamide]
- EC50: 1000 to 2000 nM

SMILES: O=C(COc1ccc(Cl)c(F)c1)NC12CCC(C(=O)NCc3nc4ccc(Cl)cc4[nH]3)(CC1)CC2 [Compound 325, N-[(6-chloro-1H-benzimidazol-2-yl)methyl]-4-[2-(4-chloro-3-fluorophenoxy)acetamido]bicyclo[2.2.2]octane-1-carboxamide]
- EC50: < 250 nM

SMILES: O=C(NC12CC(C(=O)Nc3ccc(OC(F)(F)F)cn3)(C1)C2)c1ccc(OC(F)(F)F)cn1 [Compound 315, 5-(trifluoromethoxy)-N-(3-{[5-(trifluoromethoxy)pyridin-2-yl]carbamoyl}bicyclo[1.1.1]pentan-1-yl)pyridine-2-carboxamide]
- EC50: 500 to 1000 nM

SMILES: O=C(COc1ccc(Cl)c(F)c1)NC12CCC(C(=O)Nc3ccc(OC(F)(F)F)cn3)(C1)C2 [Compound 288, 4-[2-(4-chloro-3-fluorophenoxy)acetamido]-N-[5-(trifluoromethoxy)pyridin-2-yl]bicyclo[2.1.1]hexane-1-carboxamide]
- EC50: < 250 nM

SMILES: O=C(COc1ccc(Cl)c(F)c1)NC12CC(C(=O)Nc3ccc(OC(F)F)cn3)(C1)C2 [Compound 309, 3-[2-(4-chloro-3-fluorophenoxy)acetamido]-N-[5-(difluoromethoxy)pyridin-2-yl]bicyclo[1.1.1]pentane-1-carboxamide]
- EC50: < 250 nM

SMILES: O=C(COc1ccc(Cl)c(F)c1)NC12CCC(C(=O)Nc3ccc(OC(F)(F)F)cc3)(CC1)OC2 [Compound 336, 4-[2-(4-chloro-3-fluorophenoxy)acetamido]-N-[4-(trifluoromethoxy)phenyl]-2-oxabicyclo[2.2.2]octane-1-carboxamide]
- EC50: < 250 nM

SMILES: O=C(COc1ccc(Cl)c(F)c1)NC12CCC(C(=O)NCc3ccc(C(F)(F)F)cn3)(CC1)C[C@@H]2O (single isomer, unassigned) [Compound 272]
- EC50: < 250 nM

SMILES: O=C(COc1ccc(Cl)c(F)c1)NC12CC(C(=O)Nc3ccc(C(F)F)cn3)(C1)C2 [Compound 298, 3-[2-(4-chloro-3-fluorophenoxy)acetamido]-N-[5-(difluoromethyl)pyridin-2-yl]bicyclo[1.1.1]pentane-1-carboxamide]
- EC50: < 250 nM

SMILES: O=C(COc1ccc(Cl)c(Cl)c1)NC12CC(C(=O)Nc3ccncc3)(C1)C2 [Compound 296, 3-[2-(3,4-dichlorophenoxy)acetamido]-N-(pyridin-4-yl)bicyclo[1.1.1]pentane-1-carboxamide]
- EC50: < 250 nM

SMILES: O=C(COc1ccc(Cl)c(F)c1)NC12CCC(C(=O)NCc3ccc(C(F)(F)F)cn3)(CC1)CC2 [Compound 261, 4-[2-(4-chloro-3-fluorophenoxy)acetamido]-N-{[5-(trifluoromethyl)pyridin-2-yl]methyl}bicyclo[2.2.2]octane-1-carboxamide]
- EC50: < 250 nM

SMILES: O=C(COc1ccc(Cl)c(F)c1)NC12CCC(C(=O)NCc3ccc(C(F)(F)F)cn3)(CC1)OC2 [Compound 335, 4-[2-(4-chloro-3-fluorophenoxy)acetamido]-N-{[5-(trifluoromethyl)pyridin-2-yl]methyl}-2-oxabicyclo[2.2.2]octane-1-carboxamide]
- EC50: < 250 nM
